{"source": "patent US10253002B2", "about": "“Compounds and methods of treating infections” (Neoculi Pty Ltd., priority 2013, dated 2019)", "note": "Where “and” joins values, the source holds several entries; their conditions need not be identical. Equal entries are not always repeated."}
{"tested_on": "Escherichia coli", "assay": "Broth microdilution MIC, Example 7 (NCL812 and analogues)", "assay_type": "cell-based", "details": "E. coli, 24 hours", "units": {"MIC (μg/ml) at 24 hours, E. coli": "µg/mL"}}
{"smiles": "CC(C)(C)c1ccc(/C=N/Nc2cc(N/N=C/c3ccc(C(C)(C)C)cc3)nc(N)n2)cc1.Cl.Cl", "note": "[NCL198]", "MIC (μg/ml) at 24 hours, E. coli": ">128"}
{"smiles": "CC(C)(C)c1ccc(/C=N/Nc2cc(N/N=C/c3ccc(C(C)(C)C)cc3)nc(N)n2)cc1", "note": "[NCL200]", "MIC (μg/ml) at 24 hours, E. coli": ">128"}
{"smiles": "CN(C)c1ccc(/C=N/Nc2cc(N/N=C/c3ccc(N(C)C)cc3)nc(N)n2)cc1", "note": "[NCL201]", "MIC (μg/ml) at 24 hours, E. coli": ">128"}
{"smiles": "Nc1nc(N/N=C/c2ccccc2Cl)cc(N/N=C/c2ccccc2Cl)n1", "note": "[NCL205]", "MIC (μg/ml) at 24 hours, E. coli": ">128"}
{"smiles": "Cc1ccc(/C=N/Nc2nc(N)nc(N/N=C/c3ccc(C)cc3)n2)cc1", "note": "[NCL206]", "MIC (μg/ml) at 24 hours, E. coli": ">128"}
{"smiles": "Nc1nc(N/N=C/c2ccccc2O)nc(N/N=C/c2ccccc2O)n1", "note": "[NCL207]", "MIC (μg/ml) at 24 hours, E. coli": ">128"}
{"smiles": "C/C(=N\\Nc1nc(N)nc(N/N=C(\\C)c2ccc(Cl)cc2)n1)c1ccc(Cl)cc1", "note": "[NCL208]", "MIC (μg/ml) at 24 hours, E. coli": ">128"}
{"tested_on": "MRSA", "assay": "Broth microdilution MIC, Example 7 (NCL812 and analogues)", "assay_type": "cell-based, Staphylococcus aureus", "details": "MIC testing, two MRSA strains", "how_it_was_run": "(§1)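 Values are MICs in μg/ml from broth microdilution per CLSI, with growth scored against a drug-free well.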"}
{"smiles": "CN(C)c1ccc(/C=N/Nc2cc(N/N=C/c3ccc(N(C)C)cc3)nc(N)n2)cc1", "note": "[NCL201]", "activity against MRSA among analogues": "greatest activity"}
{"smiles": "Nc1nc(N/N=C/c2ccccc2Cl)cc(N/N=C/c2ccccc2Cl)n1", "note": "[NCL205]", "activity against MRSA among analogues": "greatest activity"}
{"smiles": "Nc1nc(N/N=C/c2ccccc2O)nc(N/N=C/c2ccccc2O)n1", "note": "[NCL207]", "activity against MRSA among analogues": "greatest activity"}
{"tested_on": "MRSA", "assay": "Broth microdilution MIC, Example 7 (NCL812 and analogues)", "assay_type": "cell-based, Staphylococcus aureus", "details": "MRSA 1, 24 hours", "how_it_was_run": "as §1"}
{"smiles": "CC(C)(C)c1ccc(/C=N/Nc2cc(N/N=C/c3ccc(C(C)(C)C)cc3)nc(N)n2)cc1.Cl.Cl", "note": "[NCL198]", "MIC (μg/ml) at 24 hours, MRSA 1": ">128 µg/mL"}
{"smiles": "CC(C)(C)c1ccc(/C=N/Nc2cc(N/N=C/c3ccc(C(C)(C)C)cc3)nc(N)n2)cc1", "note": "[NCL200]", "MIC (μg/ml) at 24 hours, MRSA 1": ">128 µg/mL"}
{"smiles": "CN(C)c1ccc(/C=N/Nc2cc(N/N=C/c3ccc(N(C)C)cc3)nc(N)n2)cc1", "note": "[NCL201]", "MIC (μg/ml) at 24 hours, MRSA 1": "32 µg/mL and 64 µg/mL"}
{"smiles": "Nc1nc(N/N=C/c2ccccc2Cl)cc(N/N=C/c2ccccc2Cl)n1", "note": "[NCL205]", "MIC (μg/ml) at 24 hours, MRSA 1": "4 µg/mL and 8 µg/mL"}
{"smiles": "Cc1ccc(/C=N/Nc2nc(N)nc(N/N=C/c3ccc(C)cc3)n2)cc1", "note": "[NCL206]", "MIC (μg/ml) at 24 hours, MRSA 1": ">128 µg/mL"}
{"smiles": "Nc1nc(N/N=C/c2ccccc2O)nc(N/N=C/c2ccccc2O)n1", "note": "[NCL207]", "MIC (μg/ml) at 24 hours, MRSA 1": "16 µg/mL and 32 µg/mL"}
{"smiles": "C/C(=N\\Nc1nc(N)nc(N/N=C(\\C)c2ccc(Cl)cc2)n1)c1ccc(Cl)cc1", "note": "[NCL208]", "MIC (μg/ml) at 24 hours, MRSA 1": ">128 µg/mL"}
{"tested_on": "MRSA", "assay": "Broth microdilution MIC, Example 7 (NCL812 and analogues)", "assay_type": "cell-based, Staphylococcus aureus", "details": "MRSA 2, 24 hours", "how_it_was_run": "as §1"}
{"smiles": "CC(C)(C)c1ccc(/C=N/Nc2cc(N/N=C/c3ccc(C(C)(C)C)cc3)nc(N)n2)cc1.Cl.Cl", "note": "[NCL198]", "MIC (μg/ml) at 24 hours, MRSA 2": ">128 µg/mL"}
{"smiles": "CC(C)(C)c1ccc(/C=N/Nc2cc(N/N=C/c3ccc(C(C)(C)C)cc3)nc(N)n2)cc1", "note": "[NCL200]", "MIC (μg/ml) at 24 hours, MRSA 2": ">128 µg/mL"}
{"smiles": "CN(C)c1ccc(/C=N/Nc2cc(N/N=C/c3ccc(N(C)C)cc3)nc(N)n2)cc1", "note": "[NCL201]", "MIC (μg/ml) at 24 hours, MRSA 2": "16 µg/mL and 32 µg/mL"}
{"smiles": "Nc1nc(N/N=C/c2ccccc2Cl)cc(N/N=C/c2ccccc2Cl)n1", "note": "[NCL205]", "MIC (μg/ml) at 24 hours, MRSA 2": "4 µg/mL and 8 µg/mL"}
{"smiles": "Cc1ccc(/C=N/Nc2nc(N)nc(N/N=C/c3ccc(C)cc3)n2)cc1", "note": "[NCL206]", "MIC (μg/ml) at 24 hours, MRSA 2": ">128 µg/mL"}
{"smiles": "Nc1nc(N/N=C/c2ccccc2O)nc(N/N=C/c2ccccc2O)n1", "note": "[NCL207]", "MIC (μg/ml) at 24 hours, MRSA 2": "32 µg/mL"}
{"smiles": "C/C(=N\\Nc1nc(N)nc(N/N=C(\\C)c2ccc(Cl)cc2)n1)c1ccc(Cl)cc1", "note": "[NCL208]", "MIC (μg/ml) at 24 hours, MRSA 2": ">128 µg/mL"}
{"tested_on": "MRSA", "assay": "Broth microdilution MIC, Example 7 (NCL812 and analogues)", "assay_type": "cell-based, Staphylococcus aureus", "details": "bioassay ranking, MRSA", "how_it_was_run": "as §1", "units": {"MRSA": "µg/mL"}}
{"smiles": "Nc1nc(N/N=C/c2ccccc2Cl)cc(N/N=C/c2ccccc2Cl)n1", "note": "[NCL205]", "MRSA": 6}
{"smiles": "Nc1nc(N/N=C/c2ccccc2O)nc(N/N=C/c2ccccc2O)n1", "note": "[NCL207]", "MRSA": 28}
{"tested_on": "VRE", "assay": "Broth microdilution MIC, Example 7 (NCL812 and analogues)", "assay_type": "cell-based, Enterococcus spp.", "details": "MIC testing, two VRE strains", "how_it_was_run": "as §1"}
{"smiles": "Nc1nc(N/N=C/c2ccccc2Cl)cc(N/N=C/c2ccccc2Cl)n1", "note": "[NCL205]", "activity against VRE among analogues": "greatest activity"}
{"tested_on": "VRE", "assay": "Broth microdilution MIC, Example 7 (NCL812 and analogues)", "assay_type": "cell-based, Enterococcus spp.", "details": "VRE 1, 24 hours", "how_it_was_run": "as §1", "units": {"MIC (μg/ml) at 24 hours, VRE 1": "µg/mL"}}
{"smiles": "CC(C)(C)c1ccc(/C=N/Nc2cc(N/N=C/c3ccc(C(C)(C)C)cc3)nc(N)n2)cc1.Cl.Cl", "note": "[NCL198]", "MIC (μg/ml) at 24 hours, VRE 1": ">128"}
{"smiles": "CC(C)(C)c1ccc(/C=N/Nc2cc(N/N=C/c3ccc(C(C)(C)C)cc3)nc(N)n2)cc1", "note": "[NCL200]", "MIC (μg/ml) at 24 hours, VRE 1": ">128"}
{"smiles": "CN(C)c1ccc(/C=N/Nc2cc(N/N=C/c3ccc(N(C)C)cc3)nc(N)n2)cc1", "note": "[NCL201]", "MIC (μg/ml) at 24 hours, VRE 1": ">128"}
{"smiles": "Nc1nc(N/N=C/c2ccccc2Cl)cc(N/N=C/c2ccccc2Cl)n1", "note": "[NCL205]", "MIC (μg/ml) at 24 hours, VRE 1": 64}
{"smiles": "Cc1ccc(/C=N/Nc2nc(N)nc(N/N=C/c3ccc(C)cc3)n2)cc1", "note": "[NCL206]", "MIC (μg/ml) at 24 hours, VRE 1": ">128"}
{"smiles": "Nc1nc(N/N=C/c2ccccc2O)nc(N/N=C/c2ccccc2O)n1", "note": "[NCL207]", "MIC (μg/ml) at 24 hours, VRE 1": ">128"}
{"smiles": "C/C(=N\\Nc1nc(N)nc(N/N=C(\\C)c2ccc(Cl)cc2)n1)c1ccc(Cl)cc1", "note": "[NCL208]", "MIC (μg/ml) at 24 hours, VRE 1": ">128"}
{"tested_on": "VRE", "assay": "Broth microdilution MIC, Example 7 (NCL812 and analogues)", "assay_type": "cell-based, Enterococcus spp.", "details": "VRE 2, 24 hours", "how_it_was_run": "as §1", "units": {"MIC (μg/ml) at 24 hours, VRE 2": "µg/mL"}}
{"smiles": "CC(C)(C)c1ccc(/C=N/Nc2cc(N/N=C/c3ccc(C(C)(C)C)cc3)nc(N)n2)cc1.Cl.Cl", "note": "[NCL198]", "MIC (μg/ml) at 24 hours, VRE 2": ">128"}
{"smiles": "CC(C)(C)c1ccc(/C=N/Nc2cc(N/N=C/c3ccc(C(C)(C)C)cc3)nc(N)n2)cc1", "note": "[NCL200]", "MIC (μg/ml) at 24 hours, VRE 2": ">128"}
{"smiles": "CN(C)c1ccc(/C=N/Nc2cc(N/N=C/c3ccc(N(C)C)cc3)nc(N)n2)cc1", "note": "[NCL201]", "MIC (μg/ml) at 24 hours, VRE 2": ">128"}
{"smiles": "Nc1nc(N/N=C/c2ccccc2Cl)cc(N/N=C/c2ccccc2Cl)n1", "note": "[NCL205]", "MIC (μg/ml) at 24 hours, VRE 2": ">128"}
{"smiles": "Cc1ccc(/C=N/Nc2nc(N)nc(N/N=C/c3ccc(C)cc3)n2)cc1", "note": "[NCL206]", "MIC (μg/ml) at 24 hours, VRE 2": ">128"}
{"smiles": "Nc1nc(N/N=C/c2ccccc2O)nc(N/N=C/c2ccccc2O)n1", "note": "[NCL207]", "MIC (μg/ml) at 24 hours, VRE 2": ">128"}
{"smiles": "C/C(=N\\Nc1nc(N)nc(N/N=C(\\C)c2ccc(Cl)cc2)n1)c1ccc(Cl)cc1", "note": "[NCL208]", "MIC (μg/ml) at 24 hours, VRE 2": ">128"}
{"tested_on": "Pseudomonas aeruginosa", "assay": "Broth microdilution MIC, Example 7 (NCL812 and analogues)", "assay_type": "cell-based", "details": "P. aeruginosa, 24 hours", "units": {"MIC (μg/ml) at 24 hours, P. aeruginosa": "µg/mL"}}
{"smiles": "CC(C)(C)c1ccc(/C=N/Nc2cc(N/N=C/c3ccc(C(C)(C)C)cc3)nc(N)n2)cc1.Cl.Cl", "note": "[NCL198]", "MIC (μg/ml) at 24 hours, P. aeruginosa": ">128"}
{"smiles": "CC(C)(C)c1ccc(/C=N/Nc2cc(N/N=C/c3ccc(C(C)(C)C)cc3)nc(N)n2)cc1", "note": "[NCL200]", "MIC (μg/ml) at 24 hours, P. aeruginosa": ">128"}
{"smiles": "CN(C)c1ccc(/C=N/Nc2cc(N/N=C/c3ccc(N(C)C)cc3)nc(N)n2)cc1", "note": "[NCL201]", "MIC (μg/ml) at 24 hours, P. aeruginosa": ">128"}
{"smiles": "Nc1nc(N/N=C/c2ccccc2Cl)cc(N/N=C/c2ccccc2Cl)n1", "note": "[NCL205]", "MIC (μg/ml) at 24 hours, P. aeruginosa": ">128"}
{"smiles": "Cc1ccc(/C=N/Nc2nc(N)nc(N/N=C/c3ccc(C)cc3)n2)cc1", "note": "[NCL206]", "MIC (μg/ml) at 24 hours, P. aeruginosa": ">128"}
{"smiles": "Nc1nc(N/N=C/c2ccccc2O)nc(N/N=C/c2ccccc2O)n1", "note": "[NCL207]", "MIC (μg/ml) at 24 hours, P. aeruginosa": ">128"}
{"smiles": "C/C(=N\\Nc1nc(N)nc(N/N=C(\\C)c2ccc(Cl)cc2)n1)c1ccc(Cl)cc1", "note": "[NCL208]", "MIC (μg/ml) at 24 hours, P. aeruginosa": ">128"}
